Experimental data reported in ChEMBL document CHEMBL4840335, “Rational Design and Development of Novel CDK9 Inhibitors for the Treatment of Acute Myeloid Leukemia” (J Med Chem, 2021).
Calls of active or inactive are those of the source. The calls are words filed in the database; no cut-off is given here.

Assays:
[1] = system: MV4-11; experiment: Induction of apoptosis in human MV4-11 cells assessed as necrotic cells at 10 nM measured after 24 hrs by annexinV-FITC/propidium iodide staining based flow cytometry (reference value: 1.03 %); type: functional
[2] = system: MV4-11; experiment: Induction of apoptosis in human MV4-11 cells assessed as late apoptotic cells at 50 nM measured after 24 hrs by annexinV-FITC/propidium iodide staining based flow cytometry (reference value: 3.04 %); type: functional
[3] = target: Cyclin-dependent kinase 7 (Homo sapiens, UniProt P50613); experiment: Inhibition of CDK7 (unknown origin)
Cyclin-dependent kinase 7, sequence (P50613 whole entry): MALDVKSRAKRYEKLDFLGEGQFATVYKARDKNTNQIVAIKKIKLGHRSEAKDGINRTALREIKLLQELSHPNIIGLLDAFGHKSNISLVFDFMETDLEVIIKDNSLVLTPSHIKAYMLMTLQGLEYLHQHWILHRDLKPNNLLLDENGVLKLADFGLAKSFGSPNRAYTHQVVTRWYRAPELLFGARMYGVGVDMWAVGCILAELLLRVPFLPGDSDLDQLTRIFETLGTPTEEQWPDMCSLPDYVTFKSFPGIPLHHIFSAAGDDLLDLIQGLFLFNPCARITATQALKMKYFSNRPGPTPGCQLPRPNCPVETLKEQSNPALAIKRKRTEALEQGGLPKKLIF

[4] = target: Cyclin-dependent kinase 9 (Homo sapiens) (UniProt P50750); experiment: Inhibition of CDK9 in human MV4-11 cells assessed as reduction in RNAP2 phosphorylation at ser2 residues at 1 to 10 uM after 12 hrs by Western blot analysis; type: cell-based; details: dose 1-10 µM
Cyclin-dependent kinase 9 (Homo sapiens), sequence (P50750 whole entry): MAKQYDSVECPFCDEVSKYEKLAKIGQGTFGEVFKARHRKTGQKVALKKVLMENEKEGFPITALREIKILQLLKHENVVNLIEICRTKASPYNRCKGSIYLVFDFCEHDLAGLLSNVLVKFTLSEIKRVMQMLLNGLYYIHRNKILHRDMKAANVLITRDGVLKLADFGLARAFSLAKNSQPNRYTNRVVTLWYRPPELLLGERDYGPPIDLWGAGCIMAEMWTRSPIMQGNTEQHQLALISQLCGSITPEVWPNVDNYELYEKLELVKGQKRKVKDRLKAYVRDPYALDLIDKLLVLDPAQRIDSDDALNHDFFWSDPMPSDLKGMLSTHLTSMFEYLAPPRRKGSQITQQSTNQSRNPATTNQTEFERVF

[5] = Observed AUC infinity in ICR mouse at 2 mg/kg, iv measured up to 24 hrs; type: ADME, organism-based; parameters: route intravenous, dose 2 mg/kg, time <=24; details: in vivo
[6] = Toxicity in Nu/Nu mouse xenografted with human MV4-11 cells assessed as body weight loss at 7.5 mg/kg, po administered for 21 consecutive days relative to control; type: organism-based; details: in vivo, 504 h, time 21 day
[7] = target: Platelet-derived growth factor receptor beta (Homo sapiens, UniProt P09619); experiment: Inhibition of PDGFRB (unknown origin)
[8] = system: MV4-11; experiment: Induction of apoptosis in human MV4-11 cells assessed as early apoptotic cells at 10 nM measured after 24 hrs by annexinV-FITC/propidium iodide staining based flow cytometry (reference value: 0.79 %); type: functional
[9] = target: Discoidin domain-containing receptor 2 (Homo sapiens, UniProt Q16832); experiment: Inhibition of DDR2 (unknown origin)
Discoidin domain-containing receptor 2, sequence (Q16832 whole entry, the tested form may be a part): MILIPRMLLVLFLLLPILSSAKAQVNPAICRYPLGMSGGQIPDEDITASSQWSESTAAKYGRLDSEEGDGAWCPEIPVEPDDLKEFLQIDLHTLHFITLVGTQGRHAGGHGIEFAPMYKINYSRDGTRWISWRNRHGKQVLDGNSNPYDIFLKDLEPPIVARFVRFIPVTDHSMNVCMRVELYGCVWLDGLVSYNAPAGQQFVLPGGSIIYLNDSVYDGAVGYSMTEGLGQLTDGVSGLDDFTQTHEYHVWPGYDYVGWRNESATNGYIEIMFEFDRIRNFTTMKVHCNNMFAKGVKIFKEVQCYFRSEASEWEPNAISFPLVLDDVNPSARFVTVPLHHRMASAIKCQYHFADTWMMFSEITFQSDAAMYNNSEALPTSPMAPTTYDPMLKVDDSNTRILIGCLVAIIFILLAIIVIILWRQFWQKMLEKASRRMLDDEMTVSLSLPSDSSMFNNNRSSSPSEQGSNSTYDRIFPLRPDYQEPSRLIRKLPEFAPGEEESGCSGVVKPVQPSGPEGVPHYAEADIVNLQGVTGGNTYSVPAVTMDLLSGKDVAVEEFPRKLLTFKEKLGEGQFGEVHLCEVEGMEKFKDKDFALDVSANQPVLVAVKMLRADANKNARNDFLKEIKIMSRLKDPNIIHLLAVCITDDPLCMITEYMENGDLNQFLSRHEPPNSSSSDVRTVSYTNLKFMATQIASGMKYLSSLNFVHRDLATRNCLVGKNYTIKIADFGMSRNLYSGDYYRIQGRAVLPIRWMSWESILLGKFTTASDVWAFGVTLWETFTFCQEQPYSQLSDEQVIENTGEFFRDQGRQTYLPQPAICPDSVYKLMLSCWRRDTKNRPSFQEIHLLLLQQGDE

[10] = system: MV4-11; experiment: Antiproliferative activity against human MV4-11 cells assessed as reduction in cell proliferation measured after 3 to 7 days by MTS assay; type: functional, cell-based
[11] = target: Cyclin-dependent kinase 9 (Homo sapiens) (UniProt P50750); experiment: Inhibition of CDK9 in human MV4-11 cells assessed as reduction in RNAP2 phosphorylation at ser5 residues at 1 to 10 uM after 12 hrs by Western blot analysis; type: cell-based; details: dose 1-10 µM
[12] = target: Serine/threonine-protein kinase Chk2 (Homo sapiens, UniProt O96017); experiment: Inhibition of CHK2 (unknown origin)
Serine/threonine-protein kinase Chk2, sequence (O96017 whole entry): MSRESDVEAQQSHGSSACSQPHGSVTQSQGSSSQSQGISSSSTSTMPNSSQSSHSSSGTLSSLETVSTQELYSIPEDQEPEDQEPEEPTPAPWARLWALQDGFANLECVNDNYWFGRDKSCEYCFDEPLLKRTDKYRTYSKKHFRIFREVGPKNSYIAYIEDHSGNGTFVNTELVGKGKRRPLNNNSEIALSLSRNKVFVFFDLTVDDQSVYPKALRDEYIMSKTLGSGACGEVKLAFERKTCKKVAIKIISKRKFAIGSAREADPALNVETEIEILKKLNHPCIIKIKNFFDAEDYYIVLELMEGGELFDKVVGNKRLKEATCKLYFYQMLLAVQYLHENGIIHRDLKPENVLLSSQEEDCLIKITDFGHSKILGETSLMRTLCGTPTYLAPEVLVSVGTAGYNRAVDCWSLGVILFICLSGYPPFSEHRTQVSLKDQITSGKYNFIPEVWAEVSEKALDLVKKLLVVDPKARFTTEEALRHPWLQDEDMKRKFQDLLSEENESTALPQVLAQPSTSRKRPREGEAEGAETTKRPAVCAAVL

[13] = system: MV4-11; experiment: Induction of apoptosis in human MV4-11 cells assessed as live cells at 10 nM measured after 24 hrs by annexinV-FITC/propidium iodide staining based flow cytometry (reference value: 95.14 %); type: functional
[14] = target: Platelet-derived growth factor receptor alpha (Homo sapiens, UniProt P16234); experiment: Inhibition of PDGFRA (unknown origin)
[15] = Half life in ICR mouse at 2 mg/kg, iv measured up to 24 hrs; type: ADME, organism-based; details: in vivo
[16] = target: Wee1-like protein kinase (Homo sapiens, UniProt P30291); experiment: Inhibition of WEE1 (unknown origin)
Wee1-like protein kinase, sequence (P30291 whole entry): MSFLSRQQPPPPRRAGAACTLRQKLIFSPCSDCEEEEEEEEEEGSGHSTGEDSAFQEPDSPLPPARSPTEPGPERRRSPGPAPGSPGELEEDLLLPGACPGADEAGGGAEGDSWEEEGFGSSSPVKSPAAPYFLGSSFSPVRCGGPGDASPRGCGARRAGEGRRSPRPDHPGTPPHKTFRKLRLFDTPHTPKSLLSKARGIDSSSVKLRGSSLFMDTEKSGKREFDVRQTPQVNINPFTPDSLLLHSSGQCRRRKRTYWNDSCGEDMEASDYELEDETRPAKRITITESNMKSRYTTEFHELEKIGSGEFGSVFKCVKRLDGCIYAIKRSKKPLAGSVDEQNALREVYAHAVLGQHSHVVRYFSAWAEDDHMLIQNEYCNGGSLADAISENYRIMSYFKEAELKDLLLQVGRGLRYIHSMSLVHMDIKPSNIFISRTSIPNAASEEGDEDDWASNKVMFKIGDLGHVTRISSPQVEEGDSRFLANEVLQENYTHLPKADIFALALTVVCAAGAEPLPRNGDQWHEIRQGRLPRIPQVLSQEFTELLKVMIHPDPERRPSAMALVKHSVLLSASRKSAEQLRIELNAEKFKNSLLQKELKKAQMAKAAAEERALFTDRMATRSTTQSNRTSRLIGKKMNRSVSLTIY

[17] = target: Fibroblast growth factor receptor 1 (Homo sapiens, UniProt P11362); experiment: Inhibition of FGFR1 (unknown origin)
[18] = system: MV4-11; experiment: Induction of apoptosis in human MV4-11 cells assessed as late apoptotic cells at 10 nM measured after 24 hrs by annexinV-FITC/propidium iodide staining based flow cytometry (reference value: 3.04 %); type: functional
[19] = target: Cyclin-dependent kinase 4 (Homo sapiens, UniProt P11802); experiment: Inhibition of CDK4 (unknown origin)
Cyclin-dependent kinase 4, sequence (P11802 whole entry): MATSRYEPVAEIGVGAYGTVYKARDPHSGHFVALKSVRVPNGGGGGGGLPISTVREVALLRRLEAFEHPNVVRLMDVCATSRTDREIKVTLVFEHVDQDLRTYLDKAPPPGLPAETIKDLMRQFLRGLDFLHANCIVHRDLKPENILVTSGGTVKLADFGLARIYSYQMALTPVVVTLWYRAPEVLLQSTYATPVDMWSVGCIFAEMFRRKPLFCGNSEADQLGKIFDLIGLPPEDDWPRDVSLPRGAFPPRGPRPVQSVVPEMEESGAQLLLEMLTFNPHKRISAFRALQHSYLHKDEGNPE

[20] = MRT in ICR mouse at 2 mg/kg, iv measured up to 24 hrs; type: ADME, organism-based; details: in vivo
[21] = target: Cyclin-dependent kinase 2 (Homo sapiens, UniProt P24941); experiment: Inhibition of CDK2 (unknown origin)
[22] = target: Cyclin-dependent kinase 6 (Homo sapiens, UniProt Q00534); experiment: Inhibition of CDK6 (unknown origin)
Cyclin-dependent kinase 6, sequence (Q00534 whole entry): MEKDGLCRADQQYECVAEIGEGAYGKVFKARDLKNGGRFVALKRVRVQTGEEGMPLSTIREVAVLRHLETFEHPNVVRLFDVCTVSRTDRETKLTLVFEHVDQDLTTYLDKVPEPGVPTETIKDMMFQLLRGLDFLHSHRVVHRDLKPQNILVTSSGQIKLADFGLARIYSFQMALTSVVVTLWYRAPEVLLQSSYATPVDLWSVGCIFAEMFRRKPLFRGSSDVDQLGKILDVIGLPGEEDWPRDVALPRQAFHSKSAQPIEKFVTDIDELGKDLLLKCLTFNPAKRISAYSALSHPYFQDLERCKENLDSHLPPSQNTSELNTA

[23] = Antiproliferative activity against human MINO cells assessed as reduction in cell proliferation measured after 3 to 7 days by MTS assay; type: functional, cell-based
[24] = target: Serine/threonine-protein kinase Chk1 (Homo sapiens, UniProt O14757); experiment: Inhibition of CHK1 (unknown origin)
[25] = target: Serine/threonine-protein kinase 17B (Homo sapiens, UniProt O94768); experiment: Inhibition of DRAK2 (unknown origin)
Serine/threonine-protein kinase 17B, sequence (O94768 whole entry): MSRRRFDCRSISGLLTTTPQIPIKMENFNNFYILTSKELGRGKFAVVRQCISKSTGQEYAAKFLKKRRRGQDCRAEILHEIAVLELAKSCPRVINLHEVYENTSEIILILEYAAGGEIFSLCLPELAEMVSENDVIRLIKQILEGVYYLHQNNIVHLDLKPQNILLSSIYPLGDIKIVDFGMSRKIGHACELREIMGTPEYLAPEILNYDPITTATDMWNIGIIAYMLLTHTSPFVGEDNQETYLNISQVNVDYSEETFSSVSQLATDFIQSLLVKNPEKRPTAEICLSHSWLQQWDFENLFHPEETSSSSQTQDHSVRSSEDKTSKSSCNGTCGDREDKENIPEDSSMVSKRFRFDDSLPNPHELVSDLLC

[26] = MRT in ICR mouse at 20 mg/kg, po measured up to 24 hrs; type: ADME, organism-based; details: in vivo
[27] = system: Z-138; experiment: Antiproliferative activity against human Z138 cells assessed as reduction in cell proliferation measured after 3 to 7 days by MTS assay; type: functional, cell-based
[28] = system: MV4-11; experiment: Antitumor activity against human MV4-11 cells xenografted in Nu/Nu mouse assessed as relative tumor volume at 7.5 mg/kg, po administered for 21 consecutive days by digital caliper method; type: functional; details: time 22 day
[29] = target: Proto-oncogene tyrosine-protein kinase receptor Ret (Homo sapiens, UniProt P07949); experiment: Inhibition of RET (unknown origin)
Proto-oncogene tyrosine-protein kinase receptor Ret, sequence (P07949 whole entry): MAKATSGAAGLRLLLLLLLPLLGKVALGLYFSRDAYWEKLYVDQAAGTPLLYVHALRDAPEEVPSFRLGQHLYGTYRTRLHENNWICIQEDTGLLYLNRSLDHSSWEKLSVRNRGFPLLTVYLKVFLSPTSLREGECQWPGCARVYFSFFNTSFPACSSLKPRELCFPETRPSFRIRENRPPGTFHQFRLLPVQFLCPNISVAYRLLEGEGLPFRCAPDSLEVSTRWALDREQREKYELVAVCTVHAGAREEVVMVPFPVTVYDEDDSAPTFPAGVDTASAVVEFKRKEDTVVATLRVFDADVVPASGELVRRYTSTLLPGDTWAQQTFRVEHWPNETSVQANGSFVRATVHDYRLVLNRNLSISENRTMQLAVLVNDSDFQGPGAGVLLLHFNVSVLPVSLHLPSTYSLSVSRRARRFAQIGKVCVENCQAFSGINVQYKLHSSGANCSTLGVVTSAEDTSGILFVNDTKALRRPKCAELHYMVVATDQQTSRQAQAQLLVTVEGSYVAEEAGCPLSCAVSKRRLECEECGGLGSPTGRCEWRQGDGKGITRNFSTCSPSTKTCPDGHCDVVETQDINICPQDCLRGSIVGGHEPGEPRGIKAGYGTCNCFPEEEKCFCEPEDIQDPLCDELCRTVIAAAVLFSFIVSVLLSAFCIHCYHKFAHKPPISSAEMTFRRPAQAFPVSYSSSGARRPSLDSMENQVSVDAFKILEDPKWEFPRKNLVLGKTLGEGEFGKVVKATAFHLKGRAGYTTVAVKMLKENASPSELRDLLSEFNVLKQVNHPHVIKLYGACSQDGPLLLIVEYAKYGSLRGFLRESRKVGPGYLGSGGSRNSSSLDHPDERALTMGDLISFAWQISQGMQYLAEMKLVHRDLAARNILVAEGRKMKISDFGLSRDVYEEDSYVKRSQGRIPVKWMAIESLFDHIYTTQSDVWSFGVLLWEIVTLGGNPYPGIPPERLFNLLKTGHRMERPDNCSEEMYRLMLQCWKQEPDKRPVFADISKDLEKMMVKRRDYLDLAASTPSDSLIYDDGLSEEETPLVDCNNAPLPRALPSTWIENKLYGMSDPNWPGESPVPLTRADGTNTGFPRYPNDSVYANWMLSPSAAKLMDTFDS

[30] = system: Raji; experiment: Antiproliferative activity against human Raji cells assessed as reduction in cell proliferation measured after 3 to 7 days by MTS assay; type: functional, cell-based
[31] = system: MV4-11; experiment: Antitumor activity against human MV4-11 cells xenografted in Nu/Nu mouse assessed as tumor growth suppression by measuring T/C ratio at 7.5 mg/kg, po administered for 21 consecutive days by digital caliper method relative to control; type: functional; details: time 21 day
[32] = Oral bioavailability in ICR mouse at 20 mg/kg measured up to 24 hrs; type: ADME, organism-based; details: in vivo
[33] = system: CCRF-CEM; experiment: Antiproliferative activity against human CCRF-CEM cells assessed as reduction in cell proliferation measured after 3 to 7 days by MTS assay; type: functional, cell-based

- IC50 [3]: > 1000 nM
- inhibition [4]: inactive
- AUC(0-inf) [5]: 558 ng·h/mL
- IC50 [7]: > 1000 nM
- IC50 [9]: > 1000 nM
- IC50 [10]: 1.6 nM
- inhibition [11]: inactive
- IC50 [12]: > 1000 nM
- IC50 [14]: > 1000 nM
- half-life [15]: 1.81 h
- IC50 [16]: > 1000 nM
- IC50 [17]: > 1000 nM
- IC50 [19]: > 1000 nM
- MRT [20]: 0.73 h
- IC50 [21]: 164 nM
- IC50 [22]: > 1000 nM
- IC50 [24]: > 1000 nM
- IC50 [25]: > 1000 nM
- MRT [26]: 5.99 h
- IC50 [29]: > 1000 nM
- IC50 [30]: 37 nM
- bioavailability [32]: 33.7%
- IC50 [33]: 2.1 nM
SMILES: Cc1n[nH]c2ccc(-c3cc(N[C@@H](CO)c4ccccc4)cnc3Cl)cc12
- Activity [1]: 0.84%
- Activity [2]: 16.89%
- Activity [6]: < 10%
- Activity [8]: 1.76%
- Activity [13]: 94.45%
- Activity [18]: 2.95%
- IC50 [23]: 8.4 nM
- IC50 [27]: 46 nM
- Activity [28]: 2.86
- T/C [31]: 27.8%
